Laboratory results as given in patent US20230416258A1, “BENZ[…], AND PREPARATION METHOD THEREFOR AND USE THEREOF” (CHINA PHARMACEUTICAL UNIVERSITY, priority 2020, published 2023).

System: KM mice
Experiment: Test for drug-induced disappearance of righting reflex in mice
Format: in vivo
Settings: single rapid bolus via tail vein
In short: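 Female KM mice (18–25 g), randomly grouped, given a single rapid bolus via tail vein. Latency (administration to loss of righting reflex) and duration (loss to recovery) recorded.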

Structure (SMILES) | Duration (30 mg/kg) | Latency (30 mg/kg) | Duration (15 mg/kg) | Latency (15 mg/kg) | Duration (60 mg/kg) | Latency (60 mg/kg)
COC(=O)CC[C@@H]1N=C(c2ccccn2)c2cc(Br)ccc2-n2c(SC)nnc21 [Compound 114, methyl (S)-3-(8-bromo-6-(pyridin-2-yl)-1-methylthio-4H-benzo[f][1,2,4]triazolo[4,3-a][1,4]diazepin-4-yl)propionate] | 20.32 min | 0.41 min |  |  |  | 
CCSc1nnc2n1-c1ccc(Br)cc1C(c1ccccn1)=N[C@H]2CCC(=O)OC [Compound 115, methyl (S)-3-(8-bromo-6-(pyridin-2-yl)-1-ethylthio-4H-benzo[f][1,2,4]triazolo[4,3-a][1,4]diazepin-4-yl)propionate] | 5.02 min | 0.13 min | 1.26 min | 0.18 min |  | 
COC(=O)CC[C@@H]1N=C(c2ccccn2)c2cc(Br)ccc2-n2c(SCC3CC3)nnc21 [Compound 116, methyl (S)-3-(8-bromo-6-(pyridin-2-yl)-1-((cyclopropylmethyl)thio)-4H-benzo[f][1,2,4]triazolo[4,3-a][1,4]diazepin-4-yl)propionate] | 10.89 min | 0.11 min |  |  |  | 
COC(=O)CC[C@@H]1N=C(c2ccccn2)c2cc(Br)ccc2-n2c(SCCN3CCOCC3)nnc21 [Compound 117, methyl (S)-3-(8-bromo-6-(pyridin-2-yl)-1-((2-morpholinoethyl)thio)-4H-benzo[f][1,2,4]triazolo[4,3-a][1,4]diazepin-4-yl)propionate] | 2.03 min | 0.14 min |  |  |  | 
COC(=O)CC[C@@H]1N=C(c2ccccn2)c2cc(Br)ccc2-n2c(SCCCN(C)C)nnc21 [Compound 118, methyl (S)-3-(8-bromo-6-(pyridin-2-yl)-1-(3-((dimethylamino)propyl)thio)-4H-benzo[f][1,2,4]triazolo[4,3-a][1,4]diazepin-4-yl)propionate] | 15.44 min | 0.32 min |  |  |  | 
COC(=O)CC[C@@H]1N=C(c2ccccc2F)c2cc(Br)ccc2-n2c(SCCN3CCCC3)nnc21 [Compound 120, methyl (S)-3-(8-bromo-6-(2-fluorophenyl)-1-(2-((pyrrolidin-1-yl)ethyl)thio)-4H-benzo[f][1,2,4]triazolo[4,3-a][1,4]diazepin-4-yl)propionate] | 19.47 min | 0.29 min |  |  |  | 
COC(=O)CC[C@@H]1N=C(c2ccccc2Cl)c2cc(Br)ccc2-n2c(SCCN3CCCC3)nnc21 [Compound 121, methyl (S)-3-(8-bromo-6-(2-chlorophenyl)-1-((2-(pyrrolidin-1-yl)ethyl)thio)-4H-benzo[f][1,2,4]triazolo[4,3-a][1,4]diazepin-4-yl)propionate] |  |  |  |  | 16.67 min | 0.18 min
COC(=O)CC[C@@H]1N=C(c2ccccc2Cl)c2cc(Cl)ccc2-n2c(SCCN3CCCCC3)nnc21 [Compound 122, methyl (S)-3-(8-chloro-6-(2-chlorophenyl)-1-(2-((piperidin-1-yl)ethyl)thio)-4H-benzo[f][1,2,4]triazolo[4,3-a][1,4]diazepin-4-yl)propionate] | 28.06 min | 0.30 min |  |  |  | 
COC(=O)CC[C@@H]1N=C(c2ccccc2F)c2cc(Br)ccc2-n2c(SCCN3CCCCC3)nnc21 [Compound 123, methyl (S)-3-(8-bromo-6-(2-fluorophenyl)-1-(2-((piperidin-1-yl)ethyl)thio)-4H-benzo[f][1,2,4]triazolo[4,3-a][1,4]diazepin-4-yl)propionate] | 53.03 min | 0.23 min | 1.38 min | 0.30 min |  | 
COC(=O)CC[C@@H]1N=C(c2ccccc2Cl)c2cc(Cl)ccc2-n2c(SCc3ccncc3)nnc21 [Compound 124, methyl (S)-3-(8-chloro-6-(2-chlorophenyl)-1-(2-((pyridin-4-yl)methyl)thio)-4H-benzo[f][1,2,4]triazolo[4,3-a][1,4]diazepin-4-yl)propionate] | 13.31 min | 0.23 min | 7.67 min | 0.18 min |  | 
COC(=O)CC[C@@H]1N=C(c2ccccc2F)c2cc(Br)ccc2-n2c(SCc3ccncc3)nnc21 [Compound 125, methyl (S)-3-(8-bromo-6-(2-fluorophenyl)-1-(2-((pyridin-4-yl)methyl)thio)-4H-benzo[f][1,2,4]triazolo[4,3-a][1,4]diazepin-4-yl)propionate] | 7.81 min | 0.19 min |  |  |  | 
COC(=O)CC[C@@H]1N=C(c2ccccc2Cl)c2cc(Cl)ccc2-n2c(SCCN3CCC(F)(F)CC3)nnc21 [Compound 127, methyl (S)-3-(8-chloro-6-(2-chlorophenyl)-1-(2-((4,4-difluoropiperidin-1-yl)ethyl)thio)-4H-benzo[f][1,2,4]triazolo[4,3-a][1,4]diazepin-4-yl)propionate] | 18.11 min | 0.43 min |  |  |  | 
COC(=O)CC[C@@H]1N=C(c2ccccc2F)c2cc(Br)ccc2-n2c(SCCN3CCC(F)(F)CC3)nnc21 [Compound 128] | 7.98 min | 0.42 min |  |  |  | 
COC(=O)CC[C@@H]1N=C(c2ccccc2Cl)c2cc(Cl)ccc2-n2c(SC(=O)N3CCN(C)CC3)nnc21 [Compound 130, methyl (S)-3-(8-chloro-6-(2-chlorophenyl)-1-(2-(4-methylpiperazine-1-carbonyl)thio)-4H-benzo[f][1,2,4]triazolo[4,3-a][1,4]diazepin-4-yl)propionate] | 18.27 min | 0.52 min |  |  |  | 
COC(=O)CC[C@@H]1N=C(c2ccccc2F)c2cc(Br)ccc2-n2c(SC(=O)N3CCN(C)CC3)nnc21 [Compound 131] | 6.84 min | 0.56 min |  |  |  | 
CCN(CC)CCCSc1nnc2n1-c1ccc(Cl)cc1C(c1ccccc1Cl)=N[C@H]2CCC(=O)OC [Compound 132, methyl (S)-3-(8-chloro-6-(2-chlorophenyl)-1-(3-((diethylamino)propyl)thio)-4H-benzo[f][1,2,4]triazolo[4,3-a][1,4]diazepin-4-yl)propionate] | 18.05 min | 0.87 min |  |  |  | 
COC(=O)CC[C@@H]1N=C(c2ccccc2Cl)c2cc(Cl)ccc2-n2c(SCCN(C)C)nnc21 [Compound 133, methyl (S)-3-(8-chloro-6-(2-chlorophenyl)-1-(2-((dimethylamino)ethyl)thio)-4H-benzo[f][1,2,4]triazolo[4,3-a][1,4]diazepin-4-yl)propionate] | 2.24 min | 0.26 min |  |  |  | 
COC(=O)CC[C@@H]1N=C(c2ccccc2F)c2cc(Br)ccc2-n2c(SCCN(C)C)nnc21 [Compound 134, methyl (S)-3-(8-bromo-6-(2-fluorophenyl)-1-(2-((dimethylamino)ethyl)thio)-4H-benzo[f][1,2,4]triazolo[4,3-a][1,4]diazepin-4-yl)propionate] | 6.54 min | 0.27 min |  |  |  | 
O=C(CC[C@@H]1N=C(c2ccccc2Cl)c2cc(Cl)ccc2-n2c1n[nH]c2=S)OCCN1CCOCC1 [Compound 137, (S)-3-(8-chloro-6-(2-chlorophenyl)-1-thio-2,4-dihydro-1H-benzo[f][1,2,4]triazolo[4,3-a][1,4]diazepin-4-yl)propionic acid-2-morpholinoethyl ester] | 21.45 min | 0.67 min |  |  |  | 
COC(=O)CC[C@@H]1N=C(c2ccccc2Cl)c2cc(Cl)ccc2-n2c(SCCn3ccnc3)nnc21 [Compound 138, methyl (S)-3-(8-chloro-6-(2-chlorophenyl)-1-(2-((1H-imidazol-1-yl)ethyl)thio)-4H-benzo[f][1,2,4]triazolo[4,3-a][1,4]diazepin-4-yl)propionate] | 6.94 min | 0.27 min |  |  |  | 
COC(=O)CC[C@@H]1N=C(c2ccccc2F)c2cc(Br)ccc2-n2c(SCCn3ccnc3)nnc21 [Compound 139, methyl (S)-3-(8-bromo-6-(2-fluorophenyl)-1-(2-((1H-imidazol-1-yl)ethyl)thio)-4H-benzo[f][1,2,4]triazolo[4,3-a][1,4]diazepin-4-yl)propionate] | 19.99 min | 0.38 min |  |  |  | 
COC(=O)CC[C@@H]1N=C(c2ccccc2Cl)c2cc(Cl)ccc2-n2c(SCCn3cccc3)nnc21 [Compound 140, methyl (S)-3-(8-chloro-6-(2-chlorophenyl)-1-(2-((1H-pyrrol-1-yl)ethyl)thio)-4H-benzo[f][1,2,4]triazolo[4,3-a][1,4]diazepin-4-yl)propionate] | 21.65 min | 0.45 min |  |  |  | 
CCN(C)C(=O)Sc1nnc2n1-c1ccc(Cl)cc1C(c1ccccc1Cl)=N[C@H]2CCC(=O)OC [Compound 142, methyl (S)-3-(8-chloro-6-(2-chlorophenyl)-1-((ethyl(methyl)carbamoyl)thio)-4H-benzo[f][1,2,4]triazolo[4,3-a][1,4]diazepin-4-yl)propionate] | 10.35 min | 0.21 min |  |  |  | 
COC(=O)CC[C@@H]1N=C(c2ccccc2Cl)c2cc(Cl)ccc2-n2c(SCCC(=O)N(C)C)nnc21 [Compound 143, methyl (S)-3-(8-chloro-6-(2-chlorophenyl)-1-(3-((dimethylamino)-3-oxopropyl)thio)-4H-benzo[f][1,2,4]triazolo[4,3-a][1,4]diazepin-4-yl)propionate] | 9.62 min | 0.64 min |  |  |  | 
COC(=O)CC[C@@H]1N=C(c2ccccc2Cl)c2cc(Cl)ccc2-n2c(SCC3=NCCN3)nnc21 [Compound 144, methyl (S)-3-(8-chloro-6-(2-chlorophenyl)-1-(((4,5-dihydro-1H-imidazol-2-yl)methyl)thio)-4H-benzo[f][1,2,4]triazolo[4,3-a][1,4]diazepin-4-yl)propionate] | 5.32 min | 0.45 min |  |  |  | 
COC(=O)CC[C@@H]1N=C(c2ccccc2Cl)c2cc(Cl)ccc2-n2c1n[nH]c2=S [Tautomer of compound 2, methyl (S)-3-(8-chloro-6-(2-chlorophenyl)-1-thio-2,4-dihydro-1H-benzo[f][1,2,4]triazolo[4,3-a][1,4]diazepin-4-yl)propionate] | 10.35 min | 1.10 min |  |  |  | 
